In patent US20160115146A1, “3-CARBOXY SUBSTITUTED COUMARIN DERIVATIVES WITH A POTENTIAL UTILITY FOR THE TREATMENT OF CANCER DISEASES” (UNIVERSITE CATHOLIQUE DE LOUVAIN, priority 2013, published 2016):

Columns and labels:
SiHa cells [1] = assay: Lactate consumption assay (inhibition of lactate influx); type: cell-based; conditions: Homo sapiens, 24 h treatment in lactate-containing medium
Description: SiHa cells were seeded on flat-bottom 24-well plates (500 000 cells/well) in normal DMEM. After 6 h of incubation, the culture medium was replaced by 1 ml of DMEM containing 10 mM lactate and incubated overnight for metabolic adaptation. Cells were then treated for 24 h with increasing concentrations of compounds (0.1, 1, 10 and 100 μM) in lactate-containing medium at 37° C. The supernatants were then centrifuged using deproteinizing columns (15 min, 10000 g at 4° C.) and lactate concentration was determined using the enzymatic assay commercialized by CMA Microdialysis AB on a CMA600 analyzer (Aurora Borealis).

SiHa cells [2] = assay: Cytotoxicity/anti-proliferative MTT assay, lactate as energy source; type: cell-based; conditions: Homo sapiens, DMEM 10 mM L-lactate without glucose, 72 h
Description: SiHa cells (human cervix squamous carcinoma) were routinely cultured in DMEM containing serum and antibiotics as previously described in Sonveaux, P. et al. J. Clin. Invest 2008 118, 3930. Two distinct media were used for the cytotoxicity assay, either DMEM containing 25 mM D-glucose (without pyruvate) or DMEM containing 10 mM L-lactate (without glucose). SiHa cells were seeded in flat-bottom 96-well plates in normal DMEM. After 6 h of incubation, the culture medium was replaced by 100 μl of glucose- or lactate-containing medium and incubated overnight for metabolic adaptation. SiHa cells were treated with the compounds of the invention at a concentration range of 0.01 μM to 100 μM. After a 72 h incubation at 37° C., cell medium was removed and replaced by freshly prepared MTT in PBS (1 mg/ml, 100 μl/well). After a 3 h incubation at 37° C., the plates were centrifuged (1000 g, 10 min at 4° C.) and the supernatant was removed before addition of DMSO (100 μl/well). Plates were kept for 10 min in the dark before reading at the spectrophotometer (Victor X4).

SiHa cells xenograft [3] = assay: In vivo anti-cancer activity in combination with cisplatin against cervix cancer (SiHa cells xenograft model); conditions: nude NMRI mice, cisplatin 5 mg/kg IP day 0 and 7 plus compound 3 mg/kg daily IP day 1-6 and 8-11, FIG. 3
Description: (§1) Seven weeks old female nude mice (Janvier®, 4-5 mice per group, NMRI), were used for the experiments. SiHa cells were subcutaneously injected (2.10^6 cells in sterile NaCl 0.9% per mouse) on the left flank of the mice (100 μl/mouse). The treatment of the mice with compounds of the invention was started when tumor xenografts reached approximately 5 mm of length and width (Caliper® measurement). […] Tumor volume was calculated as the following: (length×width^2×π)/6 and expressed in mm^3. Tumor growth delay graphs and statistical analysis (Two-way ANOVA) were performed using GraphPad Prism 4 software.

SiHa cells xenograft [4] = assay: In vivo anti-cancer activity against cervix cancer (SiHa cells xenograft model); conditions: nude NMRI mice, 3 mg/kg daily IP, FIG. 1(A)
Description: 7 weeks old female nude mice (Janvier®, 4-5 mice per group, Balb-c or NMRI) with various human cancer cell lines xenografts were used. SiHa cells were subcutaneously injected (10^6 to 2.10^6 (10^6 or 2.10^6) cells in sterile NaCl 0.9% per mouse) on the left flank of the mice (100 μl/mouse). […] Tumor volume was calculated as following: (length×width^2×π)/6 and expressed in mm^3. Tumor growth delay graphs and statistical analysis (Two-way ANOVA) were performed using GraphPad Prism 4 software.

HCT116 cells xenograft = assay: In vivo anti-cancer activity against colon cancer (HCT116 cells xenograft model); conditions: nude NMRI mice, 3 mg/kg daily IP, FIG. 2
Description: as §1, with “HCT116” for “SiHa”

SiHa cells [5] = assay: [14C]-lactate uptake assay (inhibition of lactate influx); type: cell-based; conditions: Homo sapiens, 0.2 h, 2 μM [14C]-lactate for 12 min
Description: After 6 h of incubation, the culture medium was replaced by 1 ml of DMEM containing 10 mM lactate and incubated overnight for metabolic adaptation.

| SMILES | CC50 (SiHa cells [2]) [nM] | further results |
| --- | --- | --- |
| COc1ccc2cc(C(=O)O)c(=O)oc2c1 [cpd 2, 7-methoxy-2-oxo-2H-chromene-3-carboxylic acid] | 9800 | IC50 (SiHa cells [1]): 2300 nM |
| O=C(O)c1cc2ccc(OCc3cc(C(F)(F)F)cc(C(F)(F)F)c3)cc2oc1=O [cpd 3, 7-((3,5-bis(trifluoromethyl)benzyl)oxy)-2-oxo-2H-chromene-3-carboxylic acid] | 600 | – |
| O=C(O)c1cc2ccc(OCc3cccc4ccccc34)cc2oc1=O [cpd 5, 7-(naphthalen-1-ylmethoxy) 2-oxo-2H-chromene-3-carboxylic acid] | 1090 | – |
| O=C(O)c1cc2ccc(OCc3cccc(F)c3)cc2oc1=O [cpd 7, 7-((3-fluorobenzyl)oxy)-2-oxo-2H-chromene-3-carboxylic acid] | 1170 | – |
| O=C(O)c1cc2ccc(OCc3ccccc3)cc2oc1=O [cpd 9, 7-(benzyloxy)-2-oxo-2H-chromene-3-cartboxylic acid] | 9100 | IC50 (SiHa cells [1]): 1900 nM |
| O=C(O)c1cc2ccc(OCc3ccccc3Cl)cc2oc1=O [cpd 11, 7-((2-chlorobenzyl)oxy)-2-oxo-2H-chromene-3-carboxylic acid] | 4230 | – |
| COc1cccc(COc2ccc3cc(C(=O)O)c(=O)oc3c2)c1 [cpd 13] | 4600 | – |
| O=C(O)c1cc2ccc(OCCc3ccccc3)cc2oc1=O [cpd 15, 2-oxo-7-phenethoxy-2H-chromene-3-carboxylic acid] | 5600 | IC50 (SiHa cells [1]): 2400 nM |
| CC(C)=CCC/C(C)=C/COc1ccc2cc(C(=O)O)c(=O)oc2c1 [cpd 17, (E)-7-((3,7-dimethylocta-2,6-dien-1-yl)oxy)-2-oxo-2H-chromene-3-carboxylic acid] | 11700 | – |
| O=C(O)c1cc2ccc(OCc3ccc(Cl)c(Cl)c3)cc2oc1=O [cpd 19, 7-((3,4-dichlorobenzyl)oxy)-2-oxo-2H-chromene-3-carboxylic acid] | 68400 | – |
| COc1ccc(OC)c(COc2ccc3cc(C(=O)O)c(=O)oc3c2)c1 [cpd 22] | 702 | – |
| O=C(O)c1cc2ccc(OCn3nnc4ccccc43)cc2oc1=O [cpd 24, 7-((1H-benzo[d][1,2,3]triazol-1-yl)methoxy)-2-oxo-2H-chromene-3-carboxylic acid] | 1100 | – |
| O=C(O)c1cc2ccc(OCc3ccc(F)cc3)cc2oc1=O [cpd 26, 7-((4-fluorobenzyl)oxy)-2-oxo-2H-chromene-3-carboxylic acid] | 3900 | IC50 (SiHa cells [1]): 1250 nM |
| O=C(O)c1cc2ccc(OCc3ccc(C(F)(F)F)cc3)cc2oc1=O [cpd 28, 2-oxo-7-((4-(trifluoromethyl)benzyl)oxy)-2H-chromene-3-carboxylic acid] | 6860 | – |
| O=C(O)c1cc2ccc(OC3Cc4ccccc4C3)cc2oc1=O [cpd 30, 7-((2,3-dihydro-1H-inden-2-yl)oxy)-2-oxo-2H-chromene-3-carboxylic acid] | 7800 | – |
| CN(Cc1ccccc1)c1ccc2cc(C(=O)O)c(=O)oc2c1 [cpd 31, 7-(benzyl(methyl)amino)-2-oxo-2H-chromene-3-carboxylic acid] | 220 | IC50 (SiHa cells [1]): 59 nM; Delay in tumor relapse (tumor volume) (SiHa cells xenograft [3]): clear delay in tumor relapse; Tumor growth delay (tumor volume) (SiHa cells xenograft [4]): clear tumor growth delay; Tumor growth delay (tumor volume) (HCT116 cells xenograft): clear tumor growth delay; IC50 (SiHa cells [5]): 11 nM |

| SMILES | CC50 (SiHa cells [2]) [nM] | further results |
| --- | --- | --- |
| O=C(O)c1cc2ccc(N3CCCC3)cc2oc1=O [cpd 33, 2-oxo-7-(pyrrolidin-1-yl)-2H-chromene-3-carboxylic acid] | 14300 | – |
| O=C(O)c1cc2ccc(N3CCOCC3)cc2oc1=O [cpd 34, 7-morpholino-2-oxo-2H-chromene-3-carboxylic acid] | 17500 | IC50 (SiHa cells [1]): 7900 nM |
| CN(C)c1ccc2cc(C(=O)O)c(=O)oc2c1 [cpd 35, 7-(dimethlamino)-2-oxo-2H-chromene-3-carboxylic acid] | 2900 | IC50 (SiHa cells [1]): 1400 nM |
| O=C(O)c1cc2cc3c4c(c2oc1=O)CCCN4CCC3 [cpd 37, 11-oxo-2,3,5,6,7,11-hexahydro-1H-pyrano[2,3 - f]pyrido[3,2,1-ij]quinoline-10-carboxylic acid] | 1200 | IC50 (SiHa cells [1]): 1300 nM |
| O=C(O)c1cc2ccc(NCc3ccccc3)cc2oc1=O [cpd 39, 7-(benzylamino)-2-oxo-2H-chromene-3-carboxylic acid] | 1790 | – |
| CCN(Cc1ccccc1)c1ccc2cc(C(=O)O)c(=O)oc2c1 [cpd 41, 7-(benzyl(ethyl)amino)-2-oxo-2H-chromene-3-carboxylic acid] | 1900 | – |
| CC(C)CN(Cc1ccccc1)c1ccc2cc(C(=O)O)c(=O)oc2c1 [cpd 43, 7-(benzyl(isobutyl)amino)-2-oxo-2H-chromene-3-carboxylic acid] | 16300 | – |
| CCCN(Cc1ccccc1)c1ccc2cc(C(=O)O)c(=O)oc2c1 [cpd 44, 7-(benzyl(propyl)amino)-2-oxo-2H-chromene-3-carboxylic acid] | 11100 | – |
| CC(C)CN(C)c1ccc2cc(C(=O)O)c(=O)oc2c1 [cpd 45, 7-(isobutyl(methyl)amino)-2-oxo-2H-chromene-3-carboxylic acid] | 220 | – |
| CN(Cc1cccs1)c1ccc2cc(C(=O)O)c(=O)oc2c1 [cpd 46, 7-(methyl(thiophen-2-ylmethyl)amino)-2-oxo-2H-chromene-3-carboxylic acid] | 210 | – |
| CN(Cc1cccc(F)c1)c1ccc2cc(C(=O)O)c(=O)oc2c1 [cpd 47, 7-((3-fluorobenzyl)(methyl)amino)-2-oxo-2H-chromene-3-carboxylic acid] | 40 | – |
| CN(CC1CCCCC1)c1ccc2cc(C(=O)O)c(=O)oc2c1 [cpd 48, 7-((cyclohexylmethyl)(methyl)amino)-2-oxo-2H-chromene-3-carboxylic acid] | 200 | – |
| COc1cccc(CN(C)c2ccc3cc(C(=O)O)c(=O)oc3c2)c1 [cpd 49, 7-((3-methoxybenzyl)(methyl)amino)-2-oxo-2H-chromene-3-carboxylic acid] | 70 | – |
| CN(CC1CCOCC1)c1ccc2cc(C(=O)O)c(=O)oc2c1 [cpd 50, 7-(methyl((tetrahydro-2H-pyran-4-yl)methyl)amino)-2-oxo-2H-chromene-3-carboxylic acid] | 100 | – |
| O=C(O)c1cc2ccc(N(Cc3ccccc3)Cc3ccccc3)cc2oc1=O [cpd 51, 7-(dibenzylamino)-2-oxo-2H-chromene-3-carboxylic acid] | 12700 | – |
| O=C(Nc1ccc2cc(C(=O)O)c(=O)oc2c1)c1ccccc1 [cpd 116, 7-benzamido-2-oxo-2H-chromene-3-carboxylic acid] | 1500 | – |
